# Literature values in patent US8455478B2, “Rapid onset liquid midazolam composition for buccal administration” (Special Products, Ltd., priority 2010, dated 2013).
# Settings: pH 8, aqueous solution
smiles,measurement,value
"Cc1ncc2n1-c1ccc(Cl)cc1C(c1ccccc1F)=NC2 [midazolam, 8-chloro-6-(2-fluorophenyl)-1-methyl-4H-imidazo[1,5-a][1,4]]",solubility of midazolam,55 µg/mL
